Counter-ions that a name gives are not always drawn. Like-named read-outs stand apart in the source and are kept apart here.
Test system: HIV-1 NL4-3 strain
Test: Antiviral activity in acute infection system of MT-4 cell with HIV-1 NL4-3 strain (Cell Titer-Glo)
Type: cell-based
[1] = antiviral activity, MT-4 cells infected with HIV-1 NL4-3 strain, MOI 0.05, 5 days culture, Cell Titer-Glo luminescence, read-out: EC50

CO[C@H]1C[C@]2(CN(C)C(=O)c3c(O)c(=O)c(C(=O)NCc4cccc(Cl)c4F)cn32)C1 [Example 1, N-(3-chloro-2-fluorobenzyl)-9′-hydroxy-cis-3-methoxy-2′-methyl-1′,8′-dioxo-1′,2′,3′,8′-tetrahydrospiro[cyclobutane-1,4′-pyrido[1,2-a]pyrazine]-7′-carboxamide hydrochloride]
EC50 (Human immunodeficiency virus 1, NL43, MT4, 120 h, antiviral activity, MT-4 cells infected with HIV-1 NL4-3 strain, MOI 0.05, 5 days culture, Cell Titer-Glo luminescence): 3.1 nM

CO[C@H]1C[C@]2(Cn3cc(C(=O)NCc4cccc(Cl)c4F)c(=O)c(O)c3C(=O)N2C)C1 [Example S63, N-(3-chloro-2-fluorobenzyl)-9′-hydroxy-cis-3-methoxy-2′-methyl-1′,8′-dioxo-1′,2′,4′,8′-tetrahydrospiro[cyclobutane-1,3′-pyrido[1,2-a]pyrazine]-7′-carboxamide hydrochloride]
EC50 (Human immunodeficiency virus 1, NL43, MT4, 120 h, antiviral activity, MT-4 cells infected with HIV-1 NL4-3 strain, MOI 0.05, 5 days culture, Cell Titer-Glo luminescence, read-out: EC50): 4 nM

CCN1C[C@@]2(C[C@@H]2COC)n2cc(C(=O)NCc3cccc(C(F)(F)F)c3F)c(=O)c(O)c2C1=O [Example T27, (1S, 2S)-2′-ethyl-N-(2-fluoro-3-(trifluoromethyl)benzyl)-9′-hydroxy-2-(methoxymethyl)-1′,8′-dioxo-1′,2′,3′,8′-tetrahydrospiro[cyclopropane-1,4′-pyrido[1,2-a]pyrazine]-7′-carboxamide]
EC50 (Human immunodeficiency virus 1, NL43, MT4, antiviral activity, MT-4 cells acutely infected with HIV-1 NL4-3 strain (wild type), Cell Titer-Glo, read-out: EC50): 97 nM

N-(3-chloro-2-fluorobenzyl)- 2′-ethyl-9′-hydroxy-trans-3- (hydroxymethyl)-1′,8′-dioxo- 1′,2′,4′,8′- tetrahydrospiro[cyclobutane- 1,3′-pyrido[1,2-a]pyrazine]- 7′-carboxamide hydrochloride [Example S58]
EC50 [1]: 6.8 nM

cis-3-(benzyloxy)-N-(2,4- difluorobenzyl)-9′-hydroxy- 2′-isopropyl-1′,8′-dioxo- 1′,2′,3′,8′- tetrahydrospiro[cyclobutane- 1,4′-pyrido[1,2-a]pyrazine]- 7′-carboxamide hydrochloride [Example S2]
EC50 [1]: 10 nM
